The target in assay [1] is T1, Inhibitor of nuclear factor kappa-B kinase subunit alpha (Homo sapiens, UniProt O15111).
T1 sequence (O15111 whole entry): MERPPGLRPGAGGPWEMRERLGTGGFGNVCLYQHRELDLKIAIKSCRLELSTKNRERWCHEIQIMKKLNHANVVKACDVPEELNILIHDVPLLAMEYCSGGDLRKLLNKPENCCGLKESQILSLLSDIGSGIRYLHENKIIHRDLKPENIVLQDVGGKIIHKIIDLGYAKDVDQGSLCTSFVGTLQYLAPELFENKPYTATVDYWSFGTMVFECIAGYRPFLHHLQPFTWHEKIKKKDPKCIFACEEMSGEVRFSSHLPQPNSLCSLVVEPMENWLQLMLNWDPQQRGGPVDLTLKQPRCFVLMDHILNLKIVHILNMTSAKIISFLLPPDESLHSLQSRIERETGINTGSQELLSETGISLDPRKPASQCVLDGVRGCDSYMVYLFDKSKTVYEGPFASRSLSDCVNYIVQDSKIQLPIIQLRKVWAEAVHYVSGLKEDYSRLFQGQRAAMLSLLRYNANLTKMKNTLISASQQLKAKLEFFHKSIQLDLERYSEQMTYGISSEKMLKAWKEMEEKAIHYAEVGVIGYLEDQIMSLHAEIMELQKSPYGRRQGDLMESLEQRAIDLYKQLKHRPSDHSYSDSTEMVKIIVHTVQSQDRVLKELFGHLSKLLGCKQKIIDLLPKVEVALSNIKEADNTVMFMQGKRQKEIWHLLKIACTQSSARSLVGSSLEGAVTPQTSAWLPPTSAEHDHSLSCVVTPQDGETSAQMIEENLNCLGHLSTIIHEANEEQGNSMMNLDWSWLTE
The assay can be described thus: Inhibition of human IKKalpha using ERLLDDRHDSGLDSMKDEE as substrate after 60 mins in presence of ATP by ADP-Glo kinase assay.

In assay [2] the target is T2, Inhibitor of nuclear factor kappa-B kinase subunit epsilon (Homo sapiens) (UniProt Q14164).
T2 sequence (whole entry): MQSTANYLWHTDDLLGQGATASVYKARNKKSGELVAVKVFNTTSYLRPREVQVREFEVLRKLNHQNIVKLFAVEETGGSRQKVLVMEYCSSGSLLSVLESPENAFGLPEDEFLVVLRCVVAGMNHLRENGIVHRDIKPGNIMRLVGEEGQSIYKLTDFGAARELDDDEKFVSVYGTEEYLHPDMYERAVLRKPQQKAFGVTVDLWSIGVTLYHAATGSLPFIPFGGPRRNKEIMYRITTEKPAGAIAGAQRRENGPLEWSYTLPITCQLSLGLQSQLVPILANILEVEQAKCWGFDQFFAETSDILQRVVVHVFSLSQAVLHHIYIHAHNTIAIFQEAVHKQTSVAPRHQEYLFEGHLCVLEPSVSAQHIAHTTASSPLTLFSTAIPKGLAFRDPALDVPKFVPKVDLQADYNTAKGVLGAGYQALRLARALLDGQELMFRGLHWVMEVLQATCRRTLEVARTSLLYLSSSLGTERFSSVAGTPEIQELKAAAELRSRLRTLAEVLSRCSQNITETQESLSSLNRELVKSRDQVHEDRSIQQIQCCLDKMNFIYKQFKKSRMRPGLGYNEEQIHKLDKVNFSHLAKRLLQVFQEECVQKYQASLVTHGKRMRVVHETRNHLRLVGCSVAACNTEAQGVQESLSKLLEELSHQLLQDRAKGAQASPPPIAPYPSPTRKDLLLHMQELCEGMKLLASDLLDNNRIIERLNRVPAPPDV
The assay can be described thus: Inhibition of human IKKepsilon at 100 uM using ERLLDDRHDSGLDSMKDEE as substrate after 60 mins in presence of ATP by ADP-Glo kinase assay relative to control. A general note: ADP-Glo first removes unused ATP, then detects ADP through luciferase.

Assay [3] has as its target T3, Inhibitor of nuclear factor kappa-B kinase subunit beta (Homo sapiens) (UniProt O14920).
T3 sequence (whole entry): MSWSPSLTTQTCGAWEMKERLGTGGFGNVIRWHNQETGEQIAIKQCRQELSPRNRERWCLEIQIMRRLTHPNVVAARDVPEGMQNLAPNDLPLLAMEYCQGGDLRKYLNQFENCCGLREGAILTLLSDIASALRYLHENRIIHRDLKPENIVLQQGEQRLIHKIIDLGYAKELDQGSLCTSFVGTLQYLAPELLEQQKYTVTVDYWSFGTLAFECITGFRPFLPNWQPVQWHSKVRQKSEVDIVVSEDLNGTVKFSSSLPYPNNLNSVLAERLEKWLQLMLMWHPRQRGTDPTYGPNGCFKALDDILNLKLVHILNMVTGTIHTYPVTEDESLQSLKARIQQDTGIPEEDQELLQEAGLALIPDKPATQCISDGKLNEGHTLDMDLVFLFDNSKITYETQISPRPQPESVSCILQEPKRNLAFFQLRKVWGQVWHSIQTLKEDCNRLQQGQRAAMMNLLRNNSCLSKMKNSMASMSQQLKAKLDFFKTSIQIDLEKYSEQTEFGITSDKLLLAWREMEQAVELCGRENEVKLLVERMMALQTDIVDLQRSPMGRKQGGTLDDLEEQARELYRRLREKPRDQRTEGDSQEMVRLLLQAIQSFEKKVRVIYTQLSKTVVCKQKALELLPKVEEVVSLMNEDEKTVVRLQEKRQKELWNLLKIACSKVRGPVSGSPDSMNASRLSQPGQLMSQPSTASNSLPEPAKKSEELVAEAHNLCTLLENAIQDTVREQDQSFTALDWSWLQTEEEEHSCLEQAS
The assay can be described thus: Inhibition of human IKKbeta at 100 uM using ERLLDDRHDSGLDSMKDEE as substrate after 60 mins in presence of ATP by ADP-Glo kinase assay relative to control.

Assay [4] deals with T4, Inhibitor of nuclear factor kappa-B kinase subunit beta (Homo sapiens, UniProt O14920).
T4 sequence (O14920 whole entry): T3 sequence (whole entry)
The assay can be described thus: Inhibition of IKK-beta in human Jurkat cells assessed as reduction in TNFalpha-stimulated IkBalpha degradation preincubated for 60 mins followed by TNFalpha stimulation for 20 mins by immunoblot analysis. Type of assay: cell-based. For orientation: Immunoblotting shows a protein as a band on a membrane.

Assay [5] concerns the target T5, Inhibitor of nuclear factor kappa-B kinase subunit epsilon (Homo sapiens, UniProt Q14164).
T5 sequence (Q14164 whole entry): T2 sequence (whole entry)
The assay can be described thus: Inhibition of human IKKepsilon using ERLLDDRHDSGLDSMKDEE as substrate after 60 mins in presence of ATP by ADP-Glo kinase assay.

Assay [6] addresses T6, Mitogen-activated protein kinase kinase kinase 14 (Homo sapiens, UniProt Q99558). The assay can be described thus: Inhibition of human NIK using AKDVDQGSLCTSFVGTLQY as substrate after 60 mins in presence of ATP by ADP-Glo kinase assay.
Target sequence in this assay (Q99558 whole entry): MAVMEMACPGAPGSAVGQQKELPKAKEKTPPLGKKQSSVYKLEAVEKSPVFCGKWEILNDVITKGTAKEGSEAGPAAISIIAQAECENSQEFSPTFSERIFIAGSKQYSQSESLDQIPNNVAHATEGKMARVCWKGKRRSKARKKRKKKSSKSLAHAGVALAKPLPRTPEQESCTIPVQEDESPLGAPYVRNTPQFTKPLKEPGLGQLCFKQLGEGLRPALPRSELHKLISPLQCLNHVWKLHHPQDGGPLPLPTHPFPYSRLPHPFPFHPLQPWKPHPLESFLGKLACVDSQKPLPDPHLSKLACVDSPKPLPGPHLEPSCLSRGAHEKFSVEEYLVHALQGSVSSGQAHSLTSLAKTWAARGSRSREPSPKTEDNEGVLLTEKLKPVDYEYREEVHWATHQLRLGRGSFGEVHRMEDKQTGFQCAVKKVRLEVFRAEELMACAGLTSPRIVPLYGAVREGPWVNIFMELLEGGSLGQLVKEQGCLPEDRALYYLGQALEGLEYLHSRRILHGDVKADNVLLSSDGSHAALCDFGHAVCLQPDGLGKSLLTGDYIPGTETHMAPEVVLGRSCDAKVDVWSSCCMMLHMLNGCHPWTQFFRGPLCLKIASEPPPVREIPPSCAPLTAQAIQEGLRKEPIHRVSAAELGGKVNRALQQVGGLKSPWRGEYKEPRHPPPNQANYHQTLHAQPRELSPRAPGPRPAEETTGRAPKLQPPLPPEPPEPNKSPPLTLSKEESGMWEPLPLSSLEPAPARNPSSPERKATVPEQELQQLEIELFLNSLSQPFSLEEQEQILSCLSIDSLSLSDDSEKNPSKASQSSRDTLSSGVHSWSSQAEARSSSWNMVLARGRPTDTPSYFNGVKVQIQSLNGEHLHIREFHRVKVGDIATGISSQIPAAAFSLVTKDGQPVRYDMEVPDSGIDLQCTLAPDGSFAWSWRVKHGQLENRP
Assay [7] addresses T6, Mitogen-activated protein kinase kinase kinase 14. The assay can be described thus: Inhibition of human NIK at 100 uM using AKDVDQGSLCTSFVGTLQY as substrate after 60 mins in presence of ATP by ADP-Glo kinase assay relative to control.
Target sequence in this assay (Q99558 whole entry, looked up): as the sequence (Q99558 whole entry) above
The target of assay [8] is T4, Inhibitor of nuclear factor kappa-B kinase subunit beta. The assay can be described thus: Inhibition of human IKKbeta using ERLLDDRHDSGLDSMKDEE as substrate after 60 mins in presence of ATP by ADP-Glo kinase assay.
Assay [9] addresses T7, Inhibitor of nuclear factor kappa-B kinase subunit alpha (Homo sapiens) (UniProt O15111).
T7 sequence (whole entry): T1 sequence (O15111 whole entry)
The assay can be described thus: Inhibition of human IKKalpha at 100 uM using ERLLDDRHDSGLDSMKDEE as substrate after 60 mins in presence of ATP by ADP-Glo kinase assay relative to control.

Some results are limits rather than exact numbers.

Take `O=C(Nc1cccc(C(F)(F)F)c1)c1nsnc1O`: the half-maximal inhibitory concentration (IC50) (usually the midpoint of a concentration-inhibition curve) in assay [1] is 35.5 µM; in assay [4], above 100 µM; in [5], above 100 µM; in [6], above 100 µM; in assay [8] it was above 100 µM. Besides, the inhibition – broadly, the change of the read-out against control, counted positive when it falls – in assay [2] is 25.8%; in assay [3], -0.94%; in assay [7], -1.1%.

Regarding `COc1nsnc1C(=O)Nc1cc(C(F)(F)F)cc(C(F)(F)F)c1`, the concentration for half-maximal inhibition (IC50) in assay [1], in assay [4], in assay [5], in assay [6] and in assay [8] was above 100 µM each time. The inhibition in assay [2] was 21.9%; in assay [3] it was 8.51%; in [9], 24.1%; in assay [7], -1.9%.

Consider `Nc1nonc1C(=O)Nc1cc(C(F)(F)F)cc(C(F)(F)F)c1`, for which the IC50 in assay [1] is above 100 µM; in assay [4], above 100 µM; in [5], 44.8 µM; in assay [6] it was above 100 µM; in assay [8], above 100 µM. For the same compound, the inhibition in [3] is 31.6%; in [9] it was 29.3%; in assay [7] it was -9.2%.

Turning to `O=C(Nc1cccc(C(F)(F)F)c1)c1nonc1O`, the IC50 in assay [1] was above 100 µM; in assay [4], 1.72 µM; in assay [5], above 100 µM; in [6] it was above 100 µM; in [8], above 100 µM. The inhibition was 32.1% in assay [2], 2.06% in assay [3], -2.5% in assay [9] and 11.8% in [7].

In the case of `Cn1nnc(O)c1C(=O)Nc1cc(C(F)(F)F)cc(C(F)(F)F)c1`, the IC50 is above 100 µM in assay [1]; above 100 µM in assay [4]; 58.5 µM in assay [5]; above 100 µM in [6]; above 100 µM in [8]. For the same compound, the inhibition in [3] is 11.2%; in [9], 13.1%; in [7], 12.1%.

With `O=C(Nc1cc(C(F)(F)F)cc(C(F)(F)F)c1)c1n[nH]nc1O`, the IC50 in assay [1], in assay [4], in assay [5], in [6] and in assay [8] was above 100 µM throughout. The inhibition in [2] was 15.3%; in assay [3] it was 5.14%; in [9], 24.5%; in assay [7] it was -9.5%.

Consider `O=C(Nc1cc(C(F)(F)F)cc(C(F)(F)F)c1)c1nonc1O`, for which the IC50 in [1] is above 100 µM; in assay [4], 6.93 µM; in assay [5], 58.5 µM; in assay [6] it was above 100 µM; in assay [8], above 100 µM. The inhibition is 12.2% in assay [3], 18.6% in assay [9] and 19.3% in [7].

Turning to `Cn1nc(O)c(C(=O)Nc2cc(C(F)(F)F)cc(C(F)(F)F)c2)n1`, the IC50 in assay [1], in assay [4], in assay [5], in assay [6] and in assay [8] was above 100 µM throughout. The inhibition was found to be 6.92% in assay [2], 5.19% in [3], 46.9% in assay [9] and 9.1% in assay [7].

As for `Cn1cc(C(=O)Nc2cc(C(F)(F)F)cc(C(F)(F)F)c2)c(O)n1`, the IC50 is above 100 µM in [1]; 25.9 µM in [4]; above 100 µM in [5]; above 100 µM in [6]; above 100 µM in assay [8]. For the same compound, the inhibition in [2] is 17.2%; in assay [3], 12.7%; in assay [9] it was 12.1%; in [7] it was 7.23%.

Take `Cc1c(C(=O)Nc2cc(C(F)(F)F)cc(C(F)(F)F)c2)c(O)nn1C`: the IC50 in assay [1] was above 100 µM; in assay [4] it was 1.32 µM; in assay [5], above 100 µM; in assay [6], above 100 µM; in assay [8], above 100 µM. For the same compound, the inhibition came to 14.2% in [2], 13.9% in [3], 13.2% in [9] and 24.1% in assay [7].

(Values after ChEMBL document CHEMBL4261552, “4-Hydroxy-N-[3,5-bis(trifluoromethyl)phenyl]-1,2,5-thiadiazole-3-carboxamide: a novel inhibitor of the canonical NF-κB cascade” (Medchemcomm, 2017).)
